Series [1] concerns KB (nasopharynx cancer). In words: Cytotoxicity test with sulphorhodamine B, 72 h, KB line. Conditions: read-out: Cytotoxic activity, IC50 KB (nasopharynx cancer).
Procedure: (§1) Cytotoxic activity tests were performed using the following cancer cell lines: MCF-7 (breast cancer), HeLa (cervical cancer) A549 (lung cancer) and KB (nasopharynx cancer) obtained from ECACC (European Collection of Cell Cultures).
(§2) Cytotoxicity tests were carried out using a standard procedure with sulphorhodamine B. They involved incubation of the cancer cell lines in the logarithmic growth phase for 72 hours with the compound tested and, subsequently, spectrophotometric determination of the degree of cell growth inhibition using adsorption of a dye (sulphorhodamine B) which binds cellular proteins.
(§3) Cells of the cell line tested in the logarithmic growth phase were seeded onto 24-well plates in a quantity of 20,000 cells/2 mL of the growth medium per well and, subsequently, incubated in an incubator at 37° C., in the 5% CO2 atmosphere for 24 hours.
(§4) Solutions of the test compounds were prepared in DMSO in the following concentration range: 0.05; 0.1; 0.5; 1; 5; 10; 50; 100; 500 μM.
(§5) The cells of the lines tested were treated with the solutions of the test compounds in a laminar-flow chamber which ensured sterile working conditions according to the following procedure: the first three wells were used as a control: they contained 20 μL of DMSO only; successive solutions of the test compound were added to subsequent wells (20 μL), starting with the lowest concentration (three wells for each concentration level). Subsequently, the plates were placed in an incubator for 72 hours.
(§6) After the end of incubation, the adhered cells were fixed by adding 500 μL of cold (4° C.) 50% trichloroacetic acid (TCA) and incubated at 4° C. for 1 hour. Subsequently, each well was rinsed with sterile water and dried. The operation was repeated five times. The fixed cells were stained for 30 minutes by adding 500 μL of 0.4% of a dye solution (sulphorhodamine B) dissolved in 1% acetic acid. Any unbound dye was removed by decanting it from the plate, and the cells were washed 4 times with 1% acetic acid. Subsequently, the plates were dried in air for approx. 5 minutes. Any unbound dye was dissolved by adding 1500 μL of 10 mM Tris-base buffer (trishydroxymethylaminomethane) to each well and shaken using an orbital shaker for 5 minutes. Subsequently, 200 μL of solution from each well was transferred to each of two wells on a new 96-well plate and absorption of the solutions was determined spectrophotometrically at a wavelength of 490-530 nm using a plate reader. Percentage inhibition of cell growth by the test compound was calculated assuming the absorption of the control solution as 100%.
(§7) Cytotoxicity tests for the other compounds and cell lines were performed following an identical procedure.
(§8) Depending on the type of the cell line, the following growth media were used: • the MCF-7 line was grown in Dulbecco's Modified Eagle's Medium (DME) from Sigma (cat. no. D5796) • the HeLa, A549 and KB lines were grown in RPMI-1640 Medium from Sigma (cat. no. R8758).
(§9) IC50 values, being concentration of a compound needed to obtain 50% inhibition of cell growth, were determined for all the derivatives tested.
(§10) To enable comparison, identical tests were performed using known cytotoxic agents: 5-fluoro-2′-deoxyuridine, 5-fluorouracil and 5′-azido-2′,5′-dideoxy-5-fluorouridine.
(§11) The values are average results of three independent determinations.
The subject of series [2] is HeLa (cervical cancer). In words: Cytotoxicity test with sulphorhodamine B, 72 h, HeLa line. Conditions: for IC50: Homo sapiens, HeLa; for activity compared to 5FU, cervical cancer cells: relative to 5FU.
Procedure: as §1, §2, §3, §4, §5, §6, §7, §8, §9, §10, §11
In series [3] the test system is A549 (lung cancer). In words: Cytotoxicity test with sulphorhodamine B, 72 h, A549 line. The settings on record: Homo sapiens.
Procedure: as §1, §2, §3, §4, §5, §6, §7, §8, §9, §10, §11
In series [4] the test system is MCF-7 (breast cancer). In words: Cytotoxicity test with sulphorhodamine B, 72 h, MCF-7 line. The settings on record: for IC50: Homo sapiens; for higher activity than 5AddFU, breast cancer cells: relative to 5AddFU; for higher activity than 5FU, breast cancer cells: relative to 5FU; for higher activity than 5FdU, breast cancer cells: relative to 5FdU.
Procedure: as §1, §2, §3, §4, §5, §6, §7, §8, §9, §10, §11
The subject of series [5] is mouse tumour cells (S-180 line). The settings on record: at concentrations as high as 400 μM; cited from earlier work.
For series [6], the system named is MCF-7, HeLa, A549 and KB cancer cell lines. In words: Cytotoxic activity tests, overall statement over the four cancer cell lines. Conditions: in words.
Procedure: as §1, §2, §9, §10
Setting [7] is: 72 h, read-out: Cytotoxic activity, IC50 HeLa (cervical cancer).
Setting [8] is: read-out: Cytotoxic activity class, HeLa (cervical cancer).
Where [9] appears, read: A549, 72 h, read-out: Cytotoxic activity, IC50 A549 (lung cancer).
Setting [10] is: A549, read-out: Cytotoxic activity class, A549 (lung cancer).
The mark [11] stands for this setting: MCF7, 72 h, read-out: Cytotoxic activity, IC50 MCF-7 line (breast cancer).
Where [12] appears, read: MCF7, read-out: Cytotoxic activity class, MCF-7 line (breast cancer).

Values after ≈ are worked out from the molar mass of the structure shown. Values joined by “and” are separate entries in the source; they are usually repeats but may differ in a detail not shown here. Equal values may be shown once. Read-outs that look alike come from different tables or passages of the source.

Consider `C=CC1C[N@@]2CCC1C[C@H]2[C@H](OCc1cn(CC2OC(n3cc(F)c(=O)[nH]c3=O)CC2O)nn1)c1ccnc2ccc(OC)cc12` (stereo partly shown) [PQN5AFU, 5-Fluoro-1-(4-hydroxy-5-{4-[(6-methoxy-quinolin-4-yl)-(5-vinyl-1-aza-bicyclo[2.2.2]oct-2-yl)-methoxymethyl]-[1,2,3]triazol-1-ylmethyl}-tetrahydrofuran-2-yl)-1H-pyrimidine-2,4-dione], for which the IC50 in series [1] was 31 µg/mL and 48.9 µM; in series [2] (setting [7]), 29 µg/mL and 45.8 µM; in series [2] (setting [8]), 4 to 30 µg/mL (≈ 6.31 to 47.3 µM); in series [3] (setting [9]) it was 29.4 µg/mL and 46.4 µM; in series [3] (setting [10]), 4 to 30 µg/mL (≈ 6.31 to 47.3 µM); in series [4] (setting [11]), 27 µg/mL and 42.6 µM. In addition, in series [4] (setting [12]), the IC50 fell in the range of 4 to 30 µg/mL (≈ 6.31 to 47.3 µM).

With `C=CC1C[N@@]2CCC1C[C@@H]2[C@@H](OCc1cn(CC2OC(n3cc(F)c(=O)[nH]c3=O)CC2O)nn1)c1ccnc2ccccc12` (stereo partly shown) [PCN5AFU, 5-Fluoro-1-(4-hydroxy-5-{4-[quinolin-4-yl-(5-vinyl-1-aza-bicyclo[2.2.2]oct-2-yl)-methoxymethyl]-[1,2,3]triazol-1-ylmethyl}-tetrahydrofuran-2-yl)-1H-pyrimidine-2,4-dione], the IC50 was 2.4 µg/mL and 3.98 µM in series [1]; 2.7 µg/mL and 4.47 µM in series [2] (setting [7]); below 4 µg/mL in series [2] (setting [8]); 2.7 µg/mL and 4.47 µM in series [3] (setting [9]); below 4 µg/mL in series [3] (setting [10]); 2.4 µg/mL and 3.98 µM in series [4] (setting [11]). For the same compound, the IC50 in series [4] (setting [12]) was below 4 µg/mL. Moreover, the “activity compared to 5FU, cervical cancer cells” value in series [2] is “comparable activity”. Besides, in series [4], the “higher activity than 5AddFU, breast cancer cells” value is recorded as 3 fold. In addition, in series [4], the “higher activity than 5FU, breast cancer cells” value is listed as 1.4 fold. Also, the “higher activity than 5FdU, breast cancer cells” value in series [4] came out at 1.6 fold.

For the compound `O=c1[nH]c(=O)n(C2CC(O)C(Cn3cc(C4CN5CCC4C[C@@H]5[C@@H](O)c4ccnc5ccccc45)nn3)O2)cc1F` (stereo partly shown) [CN5AFU, 5-Fluoro-1-(4-hydroxy-5-{4-[6-(hydroxy-quinolin-4-yl-methyl)-1-aza-bicyclo[2.2.2]oct-3-yl]-[1,2,3]triazol-1-ylmethyl}-tetrahydrofuran-2-yl)-1H-pyrimidine-2,4-dione], the IC50 in series [1] is 2.9 µg/mL and 5.15 µM; in series [2] (setting [7]), 3.1 µg/mL and 5.5 µM; in series [2] (setting [8]), below 4 µg/mL; in series [3] (setting [9]), 3.1 µg/mL and 5.5 µM; in series [3] (setting [10]), below 4 µg/mL; in series [4] (setting [11]), 2.8 µg/mL and 4.97 µM. Besides, the IC50 in series [4] (setting [12]) was below 4 µg/mL. In addition, the “activity compared to 5FU, cervical cancer cells” value in series [2] is recorded as “comparable activity”. Besides, the “higher activity than 5AddFU, breast cancer cells” value in series [4] is reported as 3 fold. Besides, the “higher activity than 5FU, breast cancer cells” value in series [4] is 1.4 fold. For the same compound, in series [4], the “higher activity than 5FdU, breast cancer cells” value worked out at 1.6 fold.

Regarding `[N-]=[N+]=NC[C@H]1O[C@@H](n2cc(F)c(O)nc2=O)C[C@@H]1O` [5′-azido-2′,5′-dideoxy-5-fluorouridine, reference compound], the cell growth inhibition in series [5] is 100%. Further, the IC50 in series [1] is 7 µg/mL and 25.8 µM; in series [2] (setting [7]) it was 7.8 µg/mL and 28.8 µM; in series [2] (setting [8]) it was 4 to 30 µg/mL (≈ 14.7 to 111 µM); in series [3] (setting [9]) it was 7 µg/mL and 25.8 µM; in series [3] (setting [10]), 4 to 30 µg/mL (≈ 14.7 to 111 µM); in series [4] (setting [11]), 7.4 µg/mL and 27.3 µM. Also, the IC50 in series [4] (setting [12]) was 4 to 30 µg/mL (≈ 14.7 to 111 µM). Further, the “Cytotoxic activity, overall verbal grade” value in series [6] (listed as 5AddFU) was “Medium cytotoxic activity”.

With `C=CC1C[N@@]2CCC1C[C@@H]2[C@@H](OCc1cn(CC2OC(n3cc(F)c(=O)[nH]c3=O)CC2O)nn1)c1ccnc2ccc(OC)cc12` (stereo partly shown) [PQD5AFU, 5-Fluoro-1-(4-hydroxy-5-{4-[(6-methoxy-quinolin-4-yl)-(5-vinyl-1-aza-bicyclo[2.2.2]oct-2-yl)-methoxymethyl]-[1,2,3]triazol-1-ylmethyl}-tetrahydrofuran-2-yl)-1H-pyrimidine-2,4-dione], the IC50 is 19.5 µg/mL and 30.8 µM in series [1]; 19.1 µg/mL and 30.1 µM in series [2] (setting [7]); 4 to 30 µg/mL (≈ 6.31 to 47.3 µM) in series [2] (setting [8]); 19.7 µg/mL and 31.1 µM in series [3] (setting [9]); 4 to 30 µg/mL (≈ 6.31 to 47.3 µM) in series [3] (setting [10]); 16 µg/mL and 25.2 µM in series [4] (setting [11]). Moreover, in series [4] (setting [12]), the IC50 fell in the range of 4 to 30 µg/mL (≈ 6.31 to 47.3 µM).

In the case of `O=c1[nH]c(=O)n([C@H]2C[C@H](O)[C@@H](CO)O2)cc1F` [5-fluoro-2′-deoxyuridine, reference compound], the IC50 in series [1] is 3.37 µg/mL and 13.7 µM; in series [2] (setting [7]), 3.2 µg/mL and 13 µM; in series [2] (setting [8]) it was below 4 µg/mL; in series [3] (setting [9]), 3.3 µg/mL and 13.4 µM; in series [3] (setting [10]), below 4 µg/mL; in series [4] (setting [11]), 2.81 µg/mL and 11.4 µM. The IC50 in series [4] (setting [12]) was below 4 µg/mL. Besides, the results for the “Cytotoxic activity, overall verbal grade” value in series [6] and in series [6] (listed as 5FdU) were “medium-activity” and “Medium cytotoxic activity”, respectively.

As to `COc1ccc2nccc([C@@H](O)[C@@H]3CC4CC[N@]3CC4c3cn(CC4OC(n5cc(F)c(=O)[nH]c5=O)CC4O)nn3)c2c1` (stereo partly shown) [QN5AFU, 5-Fluoro-1-[4-hydroxy-5-(4-{6-[hydroxy-(6-methoxy-quinolin-4-yl)-methyl]-1-aza-bicyclo[2.2.2]oct-3-yl}-[1,2,3]triazol-1-ylmethyl)-tetrahydrofuran-2-yl]-1H-pyrimidine-2,4-dione], the IC50 in series [1] is 12.6 µg/mL and 21.2 µM; in series [2] (setting [7]), 12 µg/mL and 20.2 µM; in series [2] (setting [8]), 4 to 30 µg/mL (≈ 6.74 to 50.5 µM); in series [3] (setting [9]), 16 µg/mL and 26.9 µM; in series [3] (setting [10]), 4 to 30 µg/mL (≈ 6.74 to 50.5 µM); in series [4] (setting [11]), 12 µg/mL and 20.2 µM. In addition, the IC50 in series [4] (setting [12]) is 4 to 30 µg/mL (≈ 6.74 to 50.5 µM).

In the case of `COc1ccc2nccc([C@H](O)[C@H]3CC4CCN3CC4c3cn(CC4OC(n5cc(F)c(=O)[nH]c5=O)CC4O)nn3)c2c1` (stereo partly shown) [QD5AFU, 5-Fluoro-1-[4-hydroxy-5-(4-{6-[hydroxy-(6-methoxy-quinolin-4-yl)-methyl]-1-aza-bicyclo[2.2.2]oct-3-yl}-[1,2,3]triazol-1-ylmethyl)-tetrahydrofuran-2-yl]-1H-pyrimidine-2,4-dione], the IC50 in series [1] was 8.9 µg/mL and 15 µM; in series [2] (setting [7]) it was 7.3 µg/mL and 12.3 µM; in series [2] (setting [8]) it was 4 to 30 µg/mL (≈ 6.74 to 50.5 µM); in series [3] (setting [9]), 8 µg/mL and 13.5 µM; in series [3] (setting [10]), 4 to 30 µg/mL (≈ 6.74 to 50.5 µM); in series [4] (setting [11]) it was 6.1 µg/mL and 10.3 µM. Besides, the IC50 in series [4] (setting [12]) lay in the range of 4 to 30 µg/mL (≈ 6.74 to 50.5 µM).

With `C=CC1C[N@@]2CCC1C[C@H]2[C@H](OCc1cn(CC2OC(n3cc(F)c(=O)[nH]c3=O)CC2O)nn1)c1ccnc2ccccc12` (stereo partly shown) [PCD5AFU, 5-Fluoro-1-(4-hydroxy-5-{4-[quinolin-4-yl-(5-vinyl-1-aza-bicyclo[2.2.2]oct-2-yl)-methoxymethyl]-[1,2,3]triazol-1-ylmethyl}-tetrahydrofuran-2-yl)-1H-pyrimidine-2,4-dione], the IC50 in series [1] was 17.5 µg/mL and 29 µM; in series [2] (setting [7]) it was 18.8 µg/mL and 29.8 µM; in series [2] (setting [8]), 4 to 30 µg/mL (≈ 6.63 to 49.7 µM); in series [3] (setting [9]), 17.8 µg/mL and 29.5 µM; in series [3] (setting [10]) it was 4 to 30 µg/mL (≈ 6.63 to 49.7 µM); in series [4] (setting [11]) it was 11.8 µg/mL and 19.6 µM. In addition, the IC50 in series [4] (setting [12]) fell in the range of 4 to 30 µg/mL (≈ 6.63 to 49.7 µM).

As for `O=c1[nH]cc(F)c(=O)[nH]1` [5-fluorouracil, reference compound], the IC50 was 2.86 µg/mL and 22 µM in series [1]; 2.73 µg/mL and 21 µM in series [2] (setting [7]); below 4 µg/mL in series [2] (setting [8]); 2.78 µg/mL and 21.4 µM in series [3] (setting [9]); below 4 µg/mL in series [3] (setting [10]); 2.37 µg/mL and 18.2 µM in series [4] (setting [11]). Moreover, the IC50 in series [4] (setting [12]) was below 4 µg/mL. Besides, the “Cytotoxic activity, overall verbal grade” value in series [6] is listed as “medium-activity”; in series [6] (listed as 5FU) it was “Medium cytotoxic activity”.

In the case of `O=c1[nH]c(=O)n(C2CC(O)C(Cn3cc(C4C[N@@]5CCC4C[C@H]5[C@H](O)c4ccnc5ccccc45)nn3)O2)cc1F` (stereo partly shown) [CD5AFU, 5-Fluoro-1-(4-hydroxy-5-{4-[6-(hydroxy-quinolin-4-yl-methyl)-1-aza-bicyclo[2.2.2]oct-3-yl]-[1,2,3]triazol-1-ylmethyl}-tetrahydrofuran-2-yl)-1H-pyrimidine-2,4-dione], the IC50 in series [1] was 15 µg/mL and 26.6 µM; in series [2] (setting [7]), 13 µg/mL and 23.1 µM; in series [2] (setting [8]), 4 to 30 µg/mL (≈ 7.1 to 53.2 µM); in series [3] (setting [9]) it was 15.2 µg/mL and 27 µM; in series [3] (setting [10]), 4 to 30 µg/mL (≈ 7.1 to 53.2 µM); in series [4] (setting [11]) it was 11.4 µg/mL and 20.2 µM. Moreover, the IC50 in series [4] (setting [12]) fell in the range of 4 to 30 µg/mL (≈ 7.1 to 53.2 µM).

Values taken from patent US9605017B2, “2′, 5′-dideoxy-5-fluorouridine derivatives having cytotoxic activity, a process for the manufacture thereof and application thereof” (ADAM MICKIEWICZ UNIVERSITY, priority 2014, dated 2017).
